# Where no end group is shown, it is not given here. [ ]: non-standard residue; d: D form.
# Key:
# rats = test: Decrease in blood glucose level in rats following intravenous injection of peptides; assay type: in vivo; details: for hypoglycaemic effect (change in blood glucose level), in words: injection of peptide, Table 2 and Figure 9; for Decrease in blood from basal / Difference from control mean: intravenous injection, peptide 0.5 µmol/100g; for Decrease in blood from basal: change of blood glucose from basal level (4.0 - 4.4 mmol glucose/l) at time 0, control 1.05; for Difference from control mean: difference of blood glucose decrease from control mean (1.05)
# Text: Values are changes (means ± SEM) of blood glucose from the basal level (4.0 - 4.4 mmol glucose/l) at time 0. Differences between the control and test groups were statistically evaluated according to Student's t-test. N.S. indicates 2P > 0.05.
# Similar results are illustrated graphically in Figure 9.
# mice = test: In vivo testing for insulin-potentiating activity on untrained and trained mice; details: untrained female mice and untrained or trained male mice, 2.3 or 2.4 mg/kg peptide in 0.2 ml saline, insulin injected at t0; Figures 12 and 13
# Experimental: The dotted lines represent control animals (injected with 0.2 ml of saline) in each case. The unbroken lines represent test animals (injected with 2.4 mg/Kg of peptide in 0.2 ml of saline). Insulin was injected at to. • Figure 13 represents in vivo testing of peptides for insulin-potentiating activity on "untrained" and "trained" male mice. The dotted line represents the mean fall in blood glucose for control animals (injected with 0.2 ml of saline). The unbroken line represents the mean fall in blood glucose for test animals, injected with 2.3 mg/kg of peptide in 0.2 ml of saline, except for (a), in which the dose was 2.4 mg/kg. • (a) Pep 6-13 (Gln^11Asp^12), "untrained" • (b) Pep 6-13 (Gln^11Asp^12), "trained" • (c) Pep 6-13 (Asn^11Asp^12), "trained" • (d) Pep 6-13 (Asp^12), "trained" Insulin was injected at to.
# The dose of Pep (6-13) was 200 µg/Kg body weight. Similarly, various forms of the peptide according to the invention in its β imide form potentiate the hypoglycaemic effect of insulin on "untrained" male and female mice. The effect on trained male mice trained to feed on schedule as described above was less striking, but still significant in some cases.
# [1] = test system: cultured muscle cells (L6 rat skeletal muscle cell line); test: Cultured cell assay for stimulation of glucose uptake; assay type: cell-based; details: peptide 10µg/ml
# Text: In these assays collagenase-dispersed rat adipocytes, cultured muscle cells (L6 rat skeletal muscle cell line) and hemidiaphragm preparations were employed.
# The effect of the β imide form peptides on glucose metabolism is further shown by their ability to stimulate glucose uptake and glycogen synthesis by cultured muscle cells and isolated rat hemidiaphragms.
Substance,"hypoglycaemic effect (change in blood glucose level), in words (rats)",Decrease in blood from basal (rats),Difference from control mean (rats),other results
"Pep (6-15): synthetic peptide corresponding to residues 6-15 of human growth hormone, α form (LSRLFDNAML; UniProt P01241 32-41, looked up, fragment)",active only in the β imide form,1.26,0.21,–
"Pep (9-13): synthetic peptide corresponding to residues 9-13 of human growth hormone, α form (LFDNA; UniProt P01241 35-39, looked up, fragment)",neither the α form nor the β imide form was active,1.12,0.07,–
"L-α-Asp at position 11 in hGH[6-13]: inactive control peptide, hGH[6-13] with L-α-Asp at position 11 and Asp at 12 (LSRLFDDA; UniProt P01241 32-39, looked up, variant N12D)",–,–,–,insulin-potentiating activity (mice): inactive
"Pep (6-12): synthetic peptide corresponding to residues 6-12 of human growth hormone, α form (LSRLFDN; UniProt P01241 32-38, looked up, fragment)",active only in the β imide form,1.00,-0.05,–
"Pep (6-13) Gly^10Pro^11 α form: variant Gly^10Pro^11 of Pep (6-13), α form (LSRLGPNA; UniProt P01241 32-39, looked up, variant F10G D11P)",inactive,–,–,–
"Pep (6-13) Ala^11 α form: variant Ala^11 of Pep (6-13), α form (LSRLFANA; UniProt P01241 32-39, looked up, variant D11A)",inactive,–,–,–
LSRL[dF]DNA [Pep P057],–,–,–,Rate of Increase from Basal [1]: 2.0 µmol glucose/hour
"Pep (6-13) Gly^10 α form: variant Gly^10 of Pep (6-13), α form (LSRLGDNA; UniProt P01241 32-39, looked up, variant F10G)",inactive,–,–,–
"Pep (6-13) Pro^11 α form: variant Pro^11 of Pep (6-13), α form (LSRLFPNA; UniProt P01241 32-39, looked up, variant D11P)",inactive,–,–,–
"Pep (6-13) Tyr^10 α form: variant Tyr^10 of Pep (6-13), α form (LSRLYDNA; UniProt P01241 32-39, looked up, variant F10Y)",inactive,–,–,–

# Reference: EP0386044B1, “HYPOGLYCAEMIC PEPTIDES” (MONASH UNIVERSITY, priority 1987, dated 1997)
